Where “and” joins values, the source holds several entries; their conditions need not be identical. Equal entries are not always repeated.
How the values were obtained:
[1] = tested on: NF-κB complex; experiment: NF-κB activation in bleomycin-treated stromal cells (nuclear translocation, luciferase reporter); format: cell-based, human; settings: for NF-κB transcriptional activity (reporter vector): bleomycin plus inhibitor, luciferase reporter
Method: FIG. 22. The stromal cells pre-transduced with the NF-κB transcriptional luciferase reporter vector were treated with bleomycin and/or RAD001. The cells were collected on Day 7 and detected for the fluorescence signal intensity of the reporter vector.
FIG. 32. Detection of NF-kB transcriptional activity based on the reporter vector. Stromal cells were treated with bleomycin along with the PI3K small molecule inhibitor LY294002 (1 μM), Akt inhibitor MK-2206 (100 nM), mTOR inhibitor RAD001 (50 nM), p38 inhibitor SB203580 (10 μM) and TAK1 inhibitor 5Z-7 (500 nM), respectively, and cell lysates were used for determining luciferase activity.
The […] vector pBABE-puro-IκBα-mut (Super repressor) containing two phosphorylated mutant sites of IKK at S32A and S34A on the IκBα protein encoding sequence were used for transfection of lentivirus-packing cell line phoenix. Lentiviruses were subsequently used to infect PSC27 stromal cell line, whereas 1 μg/ml puromycin was used to screen positive clones. As another method, 5 μm of the small molecule inhibitor Bay11-7082 (purchased from Selleck) was used for NF-κB activity control. Stromal cells were subsequently exposed to several different forms of cytotoxicity, with the resulting phenotype recorded in time, and the relevant gene expression analyzed. The resulted conditioned culture medium produced from cells processed in this way was collected for various detection of epithelial cells.
Even so, is TAK1 activated indirectly by upstream DDR signaling associated with activation of a core transcription factor, NF-κB complex involved in the broad-spectrum expression of the SASP? The NF-κB complex was previously reported to be mediated by mono-ubiquitination of IκB kinase subunit γ (IKKγ) in cytoplasm. After isolating nucleus from cytoplasmic proteins using a kit, the inventor finds that TAK1 phosphorylation is associated with nuclear translocation of p50 and p65, the two main subunits of NF-κB complex (FIG. 4).

[2] = tested on: IL-8; experiment: IL-8 protein expression of damaged stromal cells (Western blot, ELISA); format: cell-based, human; settings: ELISA of extracellular fluid, bleomycin plus inhibitor
Method: FIG. 15. The stromal cells were collected on Day 7 after bleomycin and/or 5Z-7 treatment. The lysates were analyzed by Western blot for their phosphorylation levels of ATM and TAK1, and activation of TAK1 downstream substrate JN K and p38. IL-8, a chemokine was used as a marker secreted factor of SASP, whose expression level was simultaneously analyzed. FIG. 33. The extracellular fluid released by each group of cells were tested by ELISA to determine the protein expression level of the secreted factor IL-8.

[3] = biological target: T1, mTOR (Homo sapiens, UniProt P42345+P62942); experiment: Western blot of Akt/mTOR pathway activation in bleomycin-treated stromal cells; format: cell-based
T1 construct: endogenous in cells; host or cells: PSC27 human prostate stromal cells
Method: (§1) The nitrocellulose filter membrane was blocked at room temperature for 1 h in the blocking solution (TBST containing 5% skim milk powder (0.1% Tween-20 in TBS)), incubated overnight at 4° C. in a primary antibody solution, rinsed at TBST room temperature for 3 times, each for 2 min. The corresponding secondary antibody conjugated with HRP prepared with the blocking solution was added, the filter membrane was incubated at room temperature for 0.5 h. The filter membrane was rinsed with PBST at room temperature for 3 times, each for 2 min.

[4] = tested on: prostate-derived stromal cell line PSC27 and epithelial cancer cell line PC3 xenograft tumors; experiment: Preclinical chemotherapy trial, subcutaneous PC3/PSC27 tissue-recombinant tumors, terminal tumor volume; format: in vivo, ICR-SCID mice; settings: for further decrease in terminal tumor volume: inhibitor combined with mitoxantrone (MIT) vs mitoxantrone alone (group 8 vs group 6); for decrease in terminal tumor volume: mitoxantrone alone vs no drug (group 6 vs group 5)
Method: All experimental mouse experiments were carried out in strict accordance with the relevant regulations of the Institutional animal care and use committee (IACUC) of the shanghai Institute of Life Sciences of the Chinese Academy of Sciences. ICR-SCID mice at an age of about 6 weeks (about 25 g in body weight) were used in this patent-related animal experiment. Stromal cells PSC27 and epithelial cells were mixed at a ratio of 1:4, with each implant containing 1.25×10^6 cells for tissue recombination. The transplant tumor was implanted into mice subcutaneously, and the animals were euthanized at the end of Week 8 after transplantation. The tumor volume was calculated according to the following formula: V=(π/6)×((l+w)/2)^3 (V, volume; l, length; w, width). Similarly, lung and breast cancer xenograft tumors were formed by tissue recombination with A549 (non-small cell lung cancer cell line) and W138 (lung fibroblast line), MDA-MB-231 (triple negative breast cancer cell line) and HBF1203 (breast fibroblast line), respectively.
In the preclinical chemotherapy trial, mice subcutaneously transplanted with tumors were fed standard experimental diet. After 2 weeks, the chemotherapeutics mitoxantrone (dose of 0.2 mg/kg) and/or SASP inhibitors (500 μl, dose of 10 mg/kg, RAD001, SB203580 and 5Z-7 were purchased from Tocris; LYTAK, purchased from Lilly Co ((Indianapolis, Ind.), 5 mg/kg) were administrated intraperitoneally. The timepoint was the first day of Week 3, 5, 7, and the whole course of treatment was composed of three cycles of administration, each cycle lasted for 2 weeks. After the course of treatment, mouse […] was collected for tumor measurement and histological analysis. Each mouse received cumulatively 0.6 mg mitoxantrone/kg body weight and 30 mg SASP inhibitor/kg body (15 mg/kg body weight for LYTAK1). Mice xenografted with lung cancer and breast cancer tumor received bleomycin (totally 0.3 mg/kg) and doxorubicin (totally 0.2 mg/kg), respectively. The timepoints and frequency were same as the administration of mitoxantrone. The chemotherapeutic trial was performed until the end of Week 8, and the mice were dissected immediately after death. The transplant tumors were collected and used for analysis in a pathological system.
In order to simulate clinical conditions as much as possible, the present inventor inoculated the subcutaneous site of immunodeficient mice with an admixture of prostate-derived stromal cell line PSC27 and epithelial cancer cell line PC3. The mice subsequently underwent a regimen of 8-week preclinical chemotherapy, which included three single- or double-drug treatments based on a series of pre-experimental data (FIGS. 64 and 65). In the absence of stromal cells, PC3 cells were still able to form tumors under screening pressure caused by chemotherapeutics, though their volumes were smaller than that generated in the case of concurrent inoculation of stromal cells and cancer cells. Such difference also objectively confirmed the tumor-promoting effect of the microenvironment (FIG. 66).

[5] = tested on: PSC27 cells; experiment: DNA damage response foci, colony formation, cell cycle arrest and SA-β-Gal in PSC27 cells; format: cell-based, human
Method: Experimental Treatment In Vitro • 100 nM docetaxel (DTX), 100 nM paclitaxel (PTX), 200 nM vincristine (VCR), 50 μg/ml bleomycin (BLEO), 1 μM mitoxantrone (MIT), or 10 Gy ^137CS ionizating radiation (γ-radiation at 743 rad/min, RAD) was added to the culture medium when PSC27 cells grown to 80% (PSC27-Pre) to produce cell damage. After drug treatment for 6 hours, the cells were simply washed by PBS for 3 times and kept in the culture medium for 7 to 10 days, followed by subsequent experiments. […] Immunofluorescence and Histochemical Analysis • Mouse monoclonal antibody anti-phospho-Histone H2A.X (Ser139) (clone JBW301, Millipore) or mouse monoclonal antibody anti-Phosphor-53BP1 (Cat #sc-135748, Santa Cruz), and secondary antibody Alexa Fluor® 488 (or 594)-conjugated F(ab′)2 were added sequentially to slides on which cells were fixed. Nuclei were counterstained with 2 μg/ml of 4′,6-diamidino-2-phenylindole (DAPI). The most representative image was selected from the 3 observation fields for data analysis and result presentation. FV1000 laser scanning confocal microscopy (Olympus) was used to obtain cellular confocal fluorescence images to determine the extent of DNA damage. • Antibody anti-TAK1 used for histological IHC staining in clinical prostate, non-small cell lung cancer patients and breast cancer patients, was purchased from Proteintech, idib.

[6] = tested on: p38MAPK, JNK, ATM; experiment: Western blot of JNK, p38MAPK and ATM phosphorylation in damaged stromal cells; format: cell-based, human; settings: bleomycin and/or SB203580
Method: as §1

[7] = biological target: T2, TAK1 (Homo sapiens, UniProt O43318); experiment: IP, in vitro kinase assay and Western blot of TAK1 activation in damaged PSC27 stromal cells; format: cell-based; settings: PSC27 cells treated with IL-1α (20 ng/ml)
T2 construct: PSC27 cells were treated with bleomycin and cell lysates were subject to anti-p-TAK1-mediated IP precipitation; endogenous in cells; host or cells: PSC27 human prostate stromal cells
T2 sequence (O43318 1-606): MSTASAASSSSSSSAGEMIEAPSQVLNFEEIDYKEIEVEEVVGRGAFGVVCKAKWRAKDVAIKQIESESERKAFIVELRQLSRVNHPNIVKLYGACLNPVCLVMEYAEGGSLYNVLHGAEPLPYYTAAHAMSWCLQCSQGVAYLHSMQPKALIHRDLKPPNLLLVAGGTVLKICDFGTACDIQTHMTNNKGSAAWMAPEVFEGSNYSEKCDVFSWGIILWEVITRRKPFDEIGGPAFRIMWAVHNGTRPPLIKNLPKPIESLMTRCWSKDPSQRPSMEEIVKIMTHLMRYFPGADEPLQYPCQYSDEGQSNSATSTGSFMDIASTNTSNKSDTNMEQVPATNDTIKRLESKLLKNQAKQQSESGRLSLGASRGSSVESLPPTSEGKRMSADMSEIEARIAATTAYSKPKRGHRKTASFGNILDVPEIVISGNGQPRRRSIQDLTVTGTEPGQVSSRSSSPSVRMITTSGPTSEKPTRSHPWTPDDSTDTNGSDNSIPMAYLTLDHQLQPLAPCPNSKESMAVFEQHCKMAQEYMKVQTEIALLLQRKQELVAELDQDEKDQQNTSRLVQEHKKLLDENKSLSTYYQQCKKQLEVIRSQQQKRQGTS
Method: In the presence of the TAK1 inhibitor 5Z-7, PSC27 cells were treated with bleomycin and cell lysates were subject to anti-p-TAK1-mediated IP precipitation. IP products were analyzed by in vitro kinase assay, and MKK6 was used as TAK1 substrate. p38 phosphorylation was analyzed by Western blot with GAPDH as the loading control. In addition, IL-1α (20 ng/ml) was used to treat stromal cells and was further analyzed by similar IP and in vitro kinase assay.

NC1(c2ccc(-c3nc4ccn5c(=O)[nH]nc5c4cc3-c3ccccc3)cc2)CCC1 [MK-2206]
NF-κB transcriptional activity (reporter vector) [1]: significantly reduced
chemokine IL-8 protein levels induced by DNA damage [2]: significantly reduced
activity of mTOR ([3]; simultaneous treatment of bleomycin and MK-2206): significantly downregulated

CO[C@H]1C[C@@H]2CC[C@@H](C)[C@@](O)(O2)C(=O)C(=O)N2CCCC[C@H]2C(=O)O[C@H]([C@H](C)C[C@@H]2CC[C@@H](OCCO)[C@H](OC)C2)CC(=O)[C@H](C)/C=C(\C)[C@@H](O)[C@@H](OC)C(=O)[C@H](C)C[C@H](C)/C=C/C=C/C=C/1C [RAD001]
further decrease in terminal tumor volume ([4]; end of Week 8): 44%
phosphorylation of IKKβ, degradation of IRAK1 and IkBα, nuclear translocation of p65 and p50 ([1]; after DNA damage, RAD001 added to the medium): largely abolished
NF-κB transcriptional activity (reporter vector) [1]: significantly attenuated
cell cycle arrest and SA-β-Gal activity ([5]; bleomycin-damaged stromal cells in the presence of RAD001): remained unaffected
single-cell level of DDR foci ([5]; bleomycin-treated cells, presence or absence of inhibitor): remained unchanged
activation of mTOR substrates S6K1 and 4E-BP1 ([3]; bleomycin and/or RAD001, Day 7): inhibition of S6K1 and 4E-BP1 activation

C[S+]([O-])c1ccc(-c2nc(-c3ccncc3)c(-c3ccc(F)cc3)[nH]2)cc1 (centres unmarked) [SB203580]
further decrease in terminal tumor volume ([4]; end of Week 8): 46%
NF-κB transcriptional activity (reporter vector) [1]: significantly reduced
chemokine IL-8 protein levels induced by DNA damage [2]: significantly reduced
phosphorylation level of p38 [6]: significantly reduce

O=C1c2c(O)ccc(O)c2C(=O)c2c(NCCNCCO)ccc(NCCNCCO)c21 [mitoxantrone]
decrease in terminal tumor volume ([4]; end of Week 8): 37%
decrease in terminal tumor volume ([4]; end of Week 8, listed as MIT): 37% and 36%

IL-1α: cytokine, known upstream regulatory factor for TAK1
TAK1/MKK6 interaction [7]: significantly enhanced
p38 kinase activity [7]: significantly increased
